Results as given in paper PMC7753040, “Discovery of a Potent RIPK3 Inhibitor for the Amelioration of Necroptosis-Associated Inflammatory Injury” (Frontiers in Cell and Developmental Biology, 2020).
pIC50: −log10 of the molar value. Read-outs that look alike come from different tables or passages of the source.

How the values were obtained:
[1] = system: phosphorylation of RIPK1, RIPK3, and MLKL; test: Western blot of phosphorylation of RIPK1, RIPK3 and MLKL in HT-29 cells upon necroptotic stimuli; assay type: cell-based, human; conditions: 2 h pretreatment, TNF-α/Smac mimetic/z-VAD 8 h
Method: (§1) The cell pellets were harvested and dissolved in lysis buffer (20 mM Tris–HCl, pH 7.4 150 mM NaCl, 1% Triton X-100, 1 mM Na3VO4, 10% glycerol, 25 mM β-glycerol-phosphate, 0.1 mM PMSF, with the Sigma phosphatase inhibitors and the Roche Pierce protease inhibitor set). The re-suspended cell pellet was then incubated on ice for 20 min, followed by centrifugation at 13000 × g for 20 min at 4°C. The supernatants were collected and protein concentrations were measured using the BCA Protein Assay Kit (Thermo Fisher Scientifc, United States). Finally, cell lysates were subjected for western-blot analysis of the indicated antibodies.
(§2) Cell lysates were prepared for immunoprecipitation using an anti-Flag antibody. The levels of RIPK3 and RIPK1 in the immunocomplex were determined by western blot analysis.

hERG = hERG (Homo sapiens, UniProt Q12809); test: hERG inhibition (standard patch clamp); assay type: cell-based
Method: (§3) Cytochrome P450 (CYP) inhibitory potency was determined by industrial standard methods as reported previously ([Dong et al., 2015]). Methods to determine potassium channel hERG inhibition and in vivo pharmacokinetic parameters have been previously published ([Lu et al., 2017]).

human RIPK1 = molecular target: T1, human RIPK1 (Homo sapiens, UniProt Q13546); test: In vitro kinase activity assay (ADP-Glo), RIPK1; assay type: biochemical; conditions: at 10 μM; ATP 50 μM, MBP 20 μM
T1 construct: purchased SignalChem
Method: (§4) The recombinant human RIPK1 or RIPK3 protein was incubated with the control DMSO or the indicated compound for around 15 min in the assay buffer (25 mM HEPES PH7.2, 12.5 mM MnCl2, 5 mM EGTA, 20 mM MgCl2, 12.5 mM β-glycerol phosphate, 2 mM EDTA, and 2 mM DTT). ATP (50 μM) and the substrate MBP (20 μM) were then added to the reaction at room temperature for 2 h. The kinase activity was calculated by the measuring the luminescence after the addition of the ADP-Glo Kinase Assay kit according to the manufacture’s instructions (Promega).
(§5) In vitro kinase activity assays using recombinant RIPK3 and RIPK1 were performed as described in the section “Materials and Methods.” Data represent mean value ± standard deviation. […] NIH3T3-RIPK3 cells were pretreated with indicated compounds for 2 h and subsequently treated with AP20187 (60 nM) for 24 h. Cell viability was determined by measuring ATP levels. […] HeLa-MLKL (1–190) cells were induced by doxycycline (1 μg/ml) for 24 h. Cells were pretreated with indicated compounds for 2 h and subsequently treated with AP20187 (60nM) for 24h. Cell viability was determined by measuring ATP levels. […] (F) MEFs were treated as indicated for 3 h. Cell lysates were harvest and subjected to western-blot analysis for full length and cleaved caspase 3.

HeLa-MLKL (1–190) cells = test: MLKL polymerization-induced necroptosis in HeLa-MLKL (1-190) cells (AP20187); assay type: cell-based, human; conditions: doxycycline 1 μg/ml 24 h, 2 h pretreatment, AP20187 60 nM 24 h
Excerpt: (§6) Human colon cancer HT-29 and mouse fibrosarcoma L929 cells were from ATCC. Mouse embryonic fibroblasts (MEF), HT-29 cells stably expressing RIPK3-shRNA and shRNA resistant scramble Flag-tagged RIPK3 (W46), and NIH3T3 cell line stably expressing RIPK3 fused to mutant FK506-binding protein (NIH3T3-RIPK3) were kindly provided by Dr. Xiaodong Wang [National Institute of Biological Sciences (NIBS), Beijing]. HeLa-MLKL (1-190) cell line was a gift from Dr. Zhigao Wang (University of Texas Southwestern Medical Center at Dallas). These cells were cultured in Dulbecco’s modified Eagle’s medium (Hyclone) supplemeted with 10% fetal bovine serum (Invitrogen) and 2 mM L-glutamine (Invitrogen) in a humidified incubator at 37°C and 5% CO2. […]
(§7) Cells were seeded in 96-well plates and then treated as indicated. The cell viability was determined by assessment of ATP levels using the CellTiter-Glo Luminescent Cell Viability Assay kit following the manufacture’s instructions (Promega). Luminescence was calculated with SpectraMax i3x (Molecular Devices).
(§8) In vitro kinase activity assays using recombinant RIPK3 and RIPK1 were performed as described in the section “Materials and Methods.” Data represent mean value ± standard deviation. […] Cell viability was determined by measuring ATP levels. […] Cell viability was determined by measuring ATP levels. […]

RIPK1/RIPK3 complex = molecular target: T2, RIPK1/RIPK3 complex (Homo sapiens, UniProt Q9Y572); test: RIPK1/RIPK3 necrosome formation in HT-29 cells stably expressing Flag-RIPK3 (immunoprecipitation); assay type: cell-based; conditions: TNF-α/Smac/z-VAD 8 h
T2 construct: expressed in transfected cells; host or cells: HT-29 (W46), gift of Dr. Xiaodong Wang
Method: as §1, §2

[2] = Metabolic stability in rat liver microsomes; assay type: in vitro ADME
[3] = system: mouse bone marrow derived macrophages; test: TLR4-mediated necroptosis induced by LPS/z-VAD in mouse bone marrow-derived macrophages; assay type: cell-based; conditions: mouse BMDM; 2 h pretreatment, LPS 20 ng/ml plus z-VAD for 24 h
Excerpt: as §6, with “CO2. NIH3T3-RIPK3 was cultured in complete medium containing […] G418 (Calbiochem).” for “CO2.”
as §7
(§9) Cell viability was determined by measuring ATP levels. […] After 5 h, cell viability was determined by measuring ATP levels and ICP6 mRNA expression was detected using viral genome extracted from cell culture supernatant. *P < 0.05. **P < 0.01. ***P < 0.001.

C57BL/6 mice = test: TNF-induced systemic inflammatory response syndrome in mice
Method: The status of mice was monitored by measuring anal temperature. Mice mortality was continuously monitored till 60 h after TNF-α administration. Blood was collected 4 h post TNF-α challenge and serum was isolated for further examination.
(A,B) The survival rate (A) and body temperature loss (B) were monitored. […] P-values were determined using the ONE-way ANOVA and multi-comparison test for statistics analysis. (C) After 4 h, serum was collected for mouse IL6 level analysis by ELISA. Data are represented as the mean ± standard deviation.

mouse BMDM = test: LPS/z-VAD-induced expression of inflammatory cytokines in mouse BMDM (Q-PCR); assay type: cell-based; conditions: 2 h pretreatment, LPS 20 ng/ml plus z-VAD 20 μM, 7 h, mRNA
Method: Total RNA was extracted using TRIzol Reagent (Invitrogen) from cell pellets. cDNA was synthesized using a Revert Aid First Strand cDNA kit (Thermo Fisher Scientifc). Real-time PCR was performed using corresponding primers and Power SYBR® Green PCR Master Mix (Invitrogen). The data were normalized to GAPDH. The primer sequences are as follows: ICP6 Forward: […], Reverse: GGT […]; TNFα Forward: […], Reverse: […]; CCL3 Forward: […], Reverse: […]; CXCL1 Forward: GCACCC […], Reverse: […] CAGA; GAPDH Forward: […], Reverse: […].

CYP2C19 = CYP2C19 (Homo sapiens, UniProt P33261); test: Cytochrome P450 inhibition, CYP2C19; assay type: in vitro ADME
Method: as §3

CYP2C9 = CYP2C9 (Homo sapiens, UniProt P11712); test: Cytochrome P450 inhibition, CYP2C9; assay type: in vitro ADME
Method: as §3

L929 cells = test: HSV-1-induced necroptosis in L929 cells (cell viability); assay type: cell-based, mouse; conditions: 2 h pretreatment, 24 h after HSV-1 infection
Method: as §7
(§10) Cell viability was determined by measuring ATP levels. L, LPS; Z, z-VAD. […] After 5 h, cell viability was determined by measuring ATP levels and ICP6 mRNA expression was detected using viral genome extracted from cell culture supernatant. *P < 0.05. **P < 0.01. ***P < 0.001.

HT-29 cells = test: TNF-induced necroptosis in HT-29 cells (cell viability, ATP levels); assay type: cell-based, human; conditions: 2 h pretreatment, then TNF-α 40 ng/ml, Smac mimetic 100 nM, z-VAD 20 μM for 48 h, focused library, compared to GSK’872
Method: as §7
To discover novel inhibitors of necroptosis, we designed and synthesized a focused library with novel structures based on the GSK’872 scaffold.
Cell viability was assessed by measuring ATP levels. […] T, TNF-α; S, Smac mimetic; Z, z-VAD.

NIH3T3-RIPK3 cells = test: RIPK3 dimerization-induced cell death in NIH3T3-RIPK3 cells (AP20187); assay type: cell-based, mouse; conditions: 2 h pretreatment, AP20187 60 nM 24 h
Excerpt: as §6, §7, §8

human RIPK3 = molecular target: T3, human RIPK3 (Homo sapiens, UniProt Q9Y572); test: In vitro kinase activity assay (ADP-Glo), RIPK3; assay type: biochemical; conditions: ATP 50 μM, MBP 20 μM; compared to GSK’872
T3 construct: purchased SignalChem
Method: as §4, §5

MEFs = test: Activation of caspase-3 / apoptosis in MEFs (western blot, cell viability); assay type: cell-based
Method: as §5

[4] = system: phosphorylation of RIPK1, RIPK3, and MLKL; test: Western blot of phosphorylation of RIPK1, RIPK3 and MLKL in L929 cells upon necroptotic stimuli; assay type: cell-based, mouse; conditions: 2 h pretreatment, TNF-α/z-VAD 4 h
Method: as §1, §2

CYP1A2 = CYP1A2 (Homo sapiens, UniProt P05177); test: Cytochrome P450 inhibition, CYP1A2; assay type: in vitro ADME
Method: as §3

CYP3A4 = CYP3A4 (Homo sapiens, UniProt P08684); test: Cytochrome P450 inhibition, CYP3A4; assay type: in vitro ADME
Method: as §3

[5] = system: rat bone marrow derived macrophages; test: TLR4-mediated necroptosis induced by LPS/z-VAD in rat bone marrow-derived macrophages; assay type: cell-based; conditions: rat BMDM; 2 h pretreatment, LPS 20 ng/ml plus z-VAD for 24 h
Excerpt: as §6, with “CO2. NIH3T3-RIPK3 was cultured in complete medium containing […] G418 (Calbiochem).” for “CO2.”
as §7, §9

[6] = In vivo mouse pharmacokinetic study; conditions: male ICR mouse
Method: as §3
(§11) (C) Pharmacokinetic parameters of Zharp-99 determined in male ICR mouse.

CYP2D6 = CYP2D6 (Homo sapiens, UniProt P10635); test: Cytochrome P450 inhibition, CYP2D6; assay type: in vitro ADME
Method: as §3

[7] = Metabolic stability in mouse liver microsomes; assay type: in vitro ADME; conditions: mouse liver microsomes (MLM)
HSV-1 ICP6 = test: Expression of viral gene ICP6 after HSV-1 infection of L929 cells (real-time PCR); assay type: cell-based, herpes simplex virus (HSV)-1; conditions: culture supernatants 5 h post HSV-1 infection
Method: Total RNA was extracted using TRIzol Reagent (Invitrogen) from cell pellets. cDNA was synthesized using a Revert Aid First Strand cDNA kit (Thermo Fisher Scientifc). Real-time PCR was performed using corresponding primers and Power SYBR® Green PCR Master Mix (Invitrogen). The data were normalized to GAPDH. The primer sequences are as follows: ICP6 Forward: […] , Reverse: GGT […]; TNFα Forward: […] , Reverse: […]; CCL3 Forward: […] , Reverse: […]; CXCL1 Forward: GCACCC […] , Reverse: […] CAGA; GAPDH Forward: […] , Reverse: […] .
as §10

[8] = Metabolic stability in human liver microsomes; assay type: in vitro ADME
Excerpt: Encouraged by the in vitro and in vivo efficacy data, we sought to evaluate the preliminary drugability profile of Zharp-99.
as §11

[9] = 5 mg/kg i.p. 15 min before mouse TNF-α 6.5 μg/mouse i.v.

Chain of CYP2C19 (P33261 whole entry): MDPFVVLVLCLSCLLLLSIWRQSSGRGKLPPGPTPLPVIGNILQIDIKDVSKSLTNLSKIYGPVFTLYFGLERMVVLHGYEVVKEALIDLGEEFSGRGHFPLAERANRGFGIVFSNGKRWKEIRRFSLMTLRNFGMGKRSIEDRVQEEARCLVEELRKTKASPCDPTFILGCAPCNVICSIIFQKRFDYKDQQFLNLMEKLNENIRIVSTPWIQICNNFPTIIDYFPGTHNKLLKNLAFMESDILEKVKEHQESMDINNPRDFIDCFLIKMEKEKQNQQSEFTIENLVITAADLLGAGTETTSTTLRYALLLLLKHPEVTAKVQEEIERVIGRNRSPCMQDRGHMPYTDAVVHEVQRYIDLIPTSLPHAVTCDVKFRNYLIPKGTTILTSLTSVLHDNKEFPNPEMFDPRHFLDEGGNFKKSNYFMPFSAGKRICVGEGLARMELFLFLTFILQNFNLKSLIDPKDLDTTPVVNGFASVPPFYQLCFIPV
Chain of CYP2C9 (P11712 whole entry): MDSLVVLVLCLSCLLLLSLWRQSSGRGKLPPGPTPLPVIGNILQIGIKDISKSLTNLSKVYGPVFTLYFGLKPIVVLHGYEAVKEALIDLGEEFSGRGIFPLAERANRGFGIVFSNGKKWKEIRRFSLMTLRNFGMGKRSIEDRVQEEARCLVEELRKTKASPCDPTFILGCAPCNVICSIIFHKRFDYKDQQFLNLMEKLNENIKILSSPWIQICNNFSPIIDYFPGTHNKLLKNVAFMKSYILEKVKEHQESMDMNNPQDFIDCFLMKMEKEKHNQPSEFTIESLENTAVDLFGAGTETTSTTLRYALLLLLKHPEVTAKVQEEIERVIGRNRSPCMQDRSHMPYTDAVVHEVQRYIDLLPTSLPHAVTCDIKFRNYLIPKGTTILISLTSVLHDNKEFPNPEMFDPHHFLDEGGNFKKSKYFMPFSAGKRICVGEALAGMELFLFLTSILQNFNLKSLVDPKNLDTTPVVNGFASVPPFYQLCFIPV
Chain of CYP2D6 (P10635 whole entry): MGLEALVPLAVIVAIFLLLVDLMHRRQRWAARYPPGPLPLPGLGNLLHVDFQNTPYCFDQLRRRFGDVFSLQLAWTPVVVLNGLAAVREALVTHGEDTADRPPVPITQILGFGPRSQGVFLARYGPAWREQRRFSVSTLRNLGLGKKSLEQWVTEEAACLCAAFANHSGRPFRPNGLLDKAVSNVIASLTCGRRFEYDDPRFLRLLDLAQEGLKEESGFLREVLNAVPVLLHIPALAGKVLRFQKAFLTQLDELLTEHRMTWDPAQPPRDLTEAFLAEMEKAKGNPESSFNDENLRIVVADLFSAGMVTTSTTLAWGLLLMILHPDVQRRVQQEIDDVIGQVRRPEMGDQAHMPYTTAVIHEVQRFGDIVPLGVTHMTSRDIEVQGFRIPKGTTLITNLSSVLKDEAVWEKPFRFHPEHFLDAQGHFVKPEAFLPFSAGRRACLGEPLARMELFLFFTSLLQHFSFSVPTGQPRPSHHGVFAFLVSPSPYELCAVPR
Chain of CYP3A4 (P08684 whole entry): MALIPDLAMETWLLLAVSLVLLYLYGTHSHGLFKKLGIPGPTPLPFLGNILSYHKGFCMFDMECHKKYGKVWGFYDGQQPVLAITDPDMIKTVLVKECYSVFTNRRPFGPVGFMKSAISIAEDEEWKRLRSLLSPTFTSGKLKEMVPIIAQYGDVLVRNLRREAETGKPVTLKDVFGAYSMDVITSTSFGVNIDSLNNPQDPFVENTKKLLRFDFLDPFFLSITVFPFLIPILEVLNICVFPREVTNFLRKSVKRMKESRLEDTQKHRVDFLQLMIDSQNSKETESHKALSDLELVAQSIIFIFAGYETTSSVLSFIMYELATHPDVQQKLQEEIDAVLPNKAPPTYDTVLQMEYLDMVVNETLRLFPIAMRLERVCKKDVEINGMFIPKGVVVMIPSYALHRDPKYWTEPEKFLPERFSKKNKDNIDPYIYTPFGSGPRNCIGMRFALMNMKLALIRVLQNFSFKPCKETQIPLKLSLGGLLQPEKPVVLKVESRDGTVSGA
Chain of CYP1A2 (P05177 whole entry): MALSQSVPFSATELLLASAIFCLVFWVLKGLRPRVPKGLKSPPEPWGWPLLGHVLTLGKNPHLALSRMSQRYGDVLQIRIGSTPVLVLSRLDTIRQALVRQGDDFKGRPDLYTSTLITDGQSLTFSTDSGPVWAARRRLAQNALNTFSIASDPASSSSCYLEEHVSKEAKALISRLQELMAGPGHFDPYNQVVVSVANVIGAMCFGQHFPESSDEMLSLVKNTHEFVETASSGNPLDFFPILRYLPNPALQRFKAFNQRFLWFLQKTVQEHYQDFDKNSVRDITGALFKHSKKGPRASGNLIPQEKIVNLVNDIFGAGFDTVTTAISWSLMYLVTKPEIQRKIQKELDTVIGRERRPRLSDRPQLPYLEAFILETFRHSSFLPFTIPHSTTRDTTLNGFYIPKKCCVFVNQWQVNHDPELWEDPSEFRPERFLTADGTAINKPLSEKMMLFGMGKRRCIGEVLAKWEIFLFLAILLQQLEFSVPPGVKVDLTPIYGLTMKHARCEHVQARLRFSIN
T1 sequence (Q13546 1-327 limits assumed): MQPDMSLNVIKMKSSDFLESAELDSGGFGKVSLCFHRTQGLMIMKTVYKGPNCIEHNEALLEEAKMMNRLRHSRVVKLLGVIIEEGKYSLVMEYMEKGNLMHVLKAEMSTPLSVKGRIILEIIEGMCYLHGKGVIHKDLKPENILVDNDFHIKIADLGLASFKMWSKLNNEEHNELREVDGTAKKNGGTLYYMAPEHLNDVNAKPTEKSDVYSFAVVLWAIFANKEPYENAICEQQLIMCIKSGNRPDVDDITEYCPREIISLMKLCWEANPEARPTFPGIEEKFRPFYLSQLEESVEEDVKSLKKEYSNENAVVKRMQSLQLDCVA
Chain of hERG (Q12809 whole entry): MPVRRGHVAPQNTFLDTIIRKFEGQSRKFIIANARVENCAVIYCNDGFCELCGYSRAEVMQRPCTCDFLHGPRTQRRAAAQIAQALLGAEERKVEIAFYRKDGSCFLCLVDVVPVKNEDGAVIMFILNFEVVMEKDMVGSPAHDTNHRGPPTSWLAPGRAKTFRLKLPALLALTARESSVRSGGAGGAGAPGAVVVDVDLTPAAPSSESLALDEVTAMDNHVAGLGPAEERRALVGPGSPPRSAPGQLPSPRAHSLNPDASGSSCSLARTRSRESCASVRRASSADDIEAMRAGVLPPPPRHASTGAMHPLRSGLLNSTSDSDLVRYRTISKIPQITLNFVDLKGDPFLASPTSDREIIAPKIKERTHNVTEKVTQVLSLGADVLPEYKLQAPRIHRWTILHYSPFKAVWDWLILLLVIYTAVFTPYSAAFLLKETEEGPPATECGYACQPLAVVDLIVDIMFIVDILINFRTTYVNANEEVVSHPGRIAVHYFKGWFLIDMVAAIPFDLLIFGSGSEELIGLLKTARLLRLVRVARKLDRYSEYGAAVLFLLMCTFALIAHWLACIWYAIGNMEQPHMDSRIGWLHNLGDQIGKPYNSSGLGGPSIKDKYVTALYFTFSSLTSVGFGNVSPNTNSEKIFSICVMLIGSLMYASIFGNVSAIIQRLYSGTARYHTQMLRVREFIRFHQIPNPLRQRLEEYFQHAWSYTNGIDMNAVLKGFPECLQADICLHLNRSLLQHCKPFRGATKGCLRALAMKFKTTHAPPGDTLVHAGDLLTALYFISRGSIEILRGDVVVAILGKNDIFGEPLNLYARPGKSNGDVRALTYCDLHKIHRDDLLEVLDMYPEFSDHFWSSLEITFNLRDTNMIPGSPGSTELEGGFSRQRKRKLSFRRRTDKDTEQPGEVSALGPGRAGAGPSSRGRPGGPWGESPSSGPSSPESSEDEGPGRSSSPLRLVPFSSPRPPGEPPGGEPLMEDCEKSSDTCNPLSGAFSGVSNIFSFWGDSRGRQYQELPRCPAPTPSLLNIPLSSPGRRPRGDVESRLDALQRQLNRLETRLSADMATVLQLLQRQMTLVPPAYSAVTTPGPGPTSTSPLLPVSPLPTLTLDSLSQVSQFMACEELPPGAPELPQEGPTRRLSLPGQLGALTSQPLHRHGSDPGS
T3 sequence (Q9Y572 whole entry): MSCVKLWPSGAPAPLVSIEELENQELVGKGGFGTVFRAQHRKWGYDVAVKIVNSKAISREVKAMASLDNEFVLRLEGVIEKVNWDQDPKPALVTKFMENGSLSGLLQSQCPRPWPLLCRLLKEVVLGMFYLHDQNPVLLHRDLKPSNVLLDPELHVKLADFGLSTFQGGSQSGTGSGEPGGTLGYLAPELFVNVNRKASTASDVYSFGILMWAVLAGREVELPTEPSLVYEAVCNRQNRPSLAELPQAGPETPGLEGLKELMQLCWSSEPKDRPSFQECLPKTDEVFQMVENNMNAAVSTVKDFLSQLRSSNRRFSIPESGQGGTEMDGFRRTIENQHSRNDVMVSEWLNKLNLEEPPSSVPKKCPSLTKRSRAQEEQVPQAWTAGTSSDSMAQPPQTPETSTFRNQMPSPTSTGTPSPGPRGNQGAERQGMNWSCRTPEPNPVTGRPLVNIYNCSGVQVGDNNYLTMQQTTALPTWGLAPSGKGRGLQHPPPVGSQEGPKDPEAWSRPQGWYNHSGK

O=S1(=O)C=C(C2CC2)c2cc3nccc(Nc4ccc5scnc5c4)c3cc21 [Zharp-99]
RIPK1 phosphorylation at S166 [1]: did not reduce
phosphorylation of MLKL [1]: abolished
phosphorylation of RIPK3 [1]: abolished
pIC50 (hERG): < 5.00
effect on RIPK1 kinase activity (human RIPK1): did not affect
polymerized MLKL-induced necroptosis (HeLa-MLKL (1–190) cells): did not affect
RIPK1/RIPK3 necrosome formation (RIPK1/RIPK3 complex): did not affect
CLint scaled ([2]; rat liver microsomes): 67 mL/min/kg
Clint ([2]; rat liver microsomes): moderate
half-life ([2]; rat liver microsomes (RLM)): 37 min
inhibition of TLR4-mediated necroptosis induced by LPS/z-VAD [3]: potently blocked
TNFα-induced temperature loss (C57BL/6 mice; [9]): ameliorated
protection against TNFα-induced lethal shock (survival) (C57BL/6 mice; [9]): significantly protected
TNFα-induced production of IL-6 in the serum (C57BL/6 mice; 5 mg/kg i.p., serum 4 h post TNF-α, ELISA): reduced
LPS/z-VAD-induced expression of inflammatory cytokines including TNFα, CCL3, and CXCL1 (mouse BMDM): could inhibit
% of CYP inhibiton 2C19 (CYP2C19; 10 μM): did not inhibit
inhibition at 10 µM (CYP2C19; human, read-out: % of CYP inhibiton 2C19): 4.15%
% of CYP inhibiton 2C9 (CYP2C9; 10 μM): did not inhibit
inhibition at 10 µM (CYP2C9; human, read-out: % of CYP inhibiton 2C9): -5.59%
inhibition of HSV-1 induced necroptosis (L929 cells): significantly inhibited
inhibition of TNF-induced necroptosis (HT-29 cells): most efficient inhibitor
RIPK3 dimerization-induced necroptosis (NIH3T3-RIPK3 cells): efficiently blocked
inhibition of the kinase activity of human RIPK3 in vitro (human RIPK3): higher inhibitory activity compared to GSK’872
induction of apoptosis compared to GSK’872 (MEFs; MEFs): more potent
activation of caspase-3 and cell death (MEFs; especially in mouse cells, MEFs treated 3 h (western blot)): induced activation of caspase-3 and cell death in a dose-dependent manner
phosphorylation of MLKL [4]: blocked
phosphorylation of RIPK3 [4]: blocked
% of CYP inhibiton 1A2 (CYP1A2; 10 μM): did not inhibit
inhibition at 10 µM (CYP1A2; human, read-out: % of CYP inhibiton 1A2): 9.26%
% of CYP inhibiton CYP3A4 (CYP3A4; 10 μM): did not inhibit
inhibition at 10 µM (CYP3A4; human, read-out: % of CYP inhibiton CYP3A4): 5.04%
inhibition of TLR4-mediated necroptosis induced by LPS/z-VAD [5]: potently blocked
Cmax ([6]; 2 mg/kg (iv)): 1390 ng/mL
half-life ([6]; 2 mg/kg (iv)): 90 min
AUC ([6]; 2 mg/kg (iv), read-out: AUC): 990 ng·h/mL
clearance ([6]; 2 mg/kg (iv), read-out: CL (clearance)): 33 mL/min/kg
Vd ([6]; 2 mg/kg (iv), read-out: Vz (volume of distribution)): 4.4 L/kg
Cmax ([6]; 10 mg/kg (po)): 2650 ng/mL
Tmax ([6]; 10 mg/kg (po)): 60 min
half-life ([6]; 10 mg/kg (po)): 72 min
AUC ([6]; 10 mg/kg (po), read-out: AUC (exposure)): 8220 ng·h/mL
% of CYP inhibiton 2D6 (CYP2D6; 10 μM): did not inhibit
inhibition at 10 µM (CYP2D6; human, read-out: % of CYP inhibiton 2D6): -0.44%
half-life [7]: 26 min
effect on expression of viral gene ICP6 (HSV-1 ICP6): did not affect
CLint scaled [8]: 63 mL/min/kg
Clint [8]: moderate
half-life [8]: 28 min
